Measured values taken from patent US20100267561A1, “HERBICIDAL PYRIDAZINONE DERIVATIVES” (priority 2007, published 2010).

Tests used:
Assay in all cases: Test B pre-/postemergence plant response
Format in all cases: in vivo
[1] = test system: blackgrass (Alopecurus myosuroides); details: Preemergence; for Blackgrass plant response rating: 8 g ai/ha
Method in brief: (§1)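 Preemergence and postemergence (plants 2-18 cm, 1- to 4-leaf stage) applications used test chemicals in a non-phytotoxic solvent with surfactant. Plants were held in a greenhouse 13 to 15 days, then rated visually against controls on a 0-100 scale (0 no effect, 100 complete control).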

corn (Zea mays) = details: Preemergence
Method in brief: as §1

[2] = test system: downy bromegrass (Bromus tectorum); details: Preemergence; for Bromegrass, Downy plant response rating: 8 g ai/ha
Method in brief: as §1

[3] = test system: giant foxtail (Setaria faberii); details: Preemergence
Method in brief: as §1

[4] = test system: pigweed (Amaranthus retroflexus); details: Preemergence
Method in brief: as §1

[5] = test system: johnsongrass (Sorghum halepense); details: Preemergence
Method in brief: as §1

[6] = test system: surinam grass (Brachiaria decumbens); details: Preemergence; for Surinam Grass plant response rating: scale 0 to 100
Method in brief: as §1

[7] = test system: common (oilseed) sunflower (Helianthus annuus); details: Preemergence
Method in brief: as §1

[8] = test system: eastern black (E.B.) nightshade (Solanum ptycanthum); details: Preemergence
Method in brief: as §1

[9] = test system: woolly cupgrass (Eriochloa villosa); details: Preemergence
Method in brief: as §1

[10] = test system: green foxtail (Setaria viridis); details: Preemergence
Method in brief: as §1

[11] = test system: catchweed bedstraw (Galium aparine); details: Preemergence; for Galium plant response rating: 8 g ai/ha
Method in brief: as §1

[12] = test system: morningglory (Ipomoea coccinea); details: Preemergence
Method in brief: as §1

[13] = 16 g ai/ha, scale 0 to 100 (0 no effect, 100 complete control)
[14] = 31 g ai/ha, 0 to 100 scale, 0 no effect, 100 complete control
[15] = 31 g ai/ha, scale 0 to 100 (0 no effect, 100 complete control)
[16] = 62 g ai/ha, 0 to 100 scale, 0 no effect, 100 complete control

Structure (SMILES): Cc1cc(-c2ccc(Cl)cc2)nn1-c1c(OS(=O)(=O)c2cccc3ccccc23)cnn(C)c1=O [Compound 47]
- Plant response rating, Blackgrass [1, 13]: 70
- Plant response rating, Blackgrass [1, 14]: 100
- Plant response rating, Blackgrass ([1]; 62 g ai/ha, scale 0 to 100): 100
- Blackgrass plant response rating ([1]; scale 0 to 100): 70
- Plant response rating, Corn (corn (Zea mays); [13]): 20
- Plant response rating, Corn (corn (Zea mays); [14]): 85
- Plant response rating, Corn (corn (Zea mays); 62 g ai/ha, scale 0 to 100): 95
- Corn plant response rating (corn (Zea mays); 8 g ai/ha, scale 0 to 100): 0
- Plant response rating, Bromegrass, Downy [2, 13]: 0
- Plant response rating, Bromegrass, Downy [2, 14]: 0
- Plant response rating, Bromegrass, Downy ([2]; 62 g ai/ha, scale 0 to 100): 90
- Bromegrass, Downy plant response rating ([2]; scale 0 to 100): 0
- Plant response rating, Foxtail, Giant [3, 13]: 98
- Plant response rating, Foxtail, Giant [3, 14]: 100
- Plant response rating, Foxtail, Giant ([3]; 62 g ai/ha, scale 0 to 100): 100
- Foxtail, Giant plant response rating ([3]; 8 g ai/ha, scale 0 to 100): 0
- Plant response rating, Pigweed [4, 15]: 0
- Plant response rating, Pigweed ([4]; 62 g ai/ha, scale 0 to 100): 0
- Pigweed plant response rating ([4]; 8 g ai/ha, scale 0 to 100): 0
- Plant response rating, Johnsongrass [5, 13]: 75
- Plant response rating, Johnsongrass [5, 14]: 85
- Plant response rating, Johnsongrass ([5]; 62 g ai/ha, scale 0 to 100): 95
- Johnsongrass plant response rating ([5]; 8 g ai/ha, scale 0 to 100): 0
- Plant response rating, Surinam Grass [6, 13]: 95
- Plant response rating, Surinam Grass [6, 15]: 98
- Plant response rating, Surinam Grass [6, 16]: 100
- Surinam Grass plant response rating ([6]; 8 g ai/ha): 80
- Plant response rating, Sunflower [7, 13]: 0
- Plant response rating, Sunflower [7, 15]: 0
- Plant response rating, Sunflower ([7]; 62 g ai/ha, scale 0 to 100): 0
- Sunflower plant response rating ([7]; 8 g ai/ha, scale 0 to 100): 0
- Plant response rating, Nightshade, E. B. [8, 13]: 0
- Plant response rating, Nightshade, E. B. [8, 15]: 0
- Plant response rating, Nightshade, E. B. ([8]; 62 g ai/ha, scale 0 to 100): 0
- Nightshade, E. B. plant response rating ([8]; 8 g ai/ha, scale 0 to 100): 0
- Plant response rating, Cupgrass, Woolly [9, 13]: 100
- Plant response rating, Cupgrass, Woolly [9, 14]: 100
- Plant response rating, Cupgrass, Woolly ([9]; 62 g ai/ha, scale 0 to 100): 100
- Cupgrass, Woolly plant response rating ([9]; 8 g ai/ha, scale 0 to 100): 98
- Plant response rating, Foxtail, Green [10, 13]: 80
- Plant response rating, Foxtail, Green [10, 14]: 100
- Plant response rating, Foxtail, Green ([10]; 62 g ai/ha, scale 0 to 100): 100
- Foxtail, Green plant response rating ([10]; 8 g ai/ha, scale 0 to 100): 5
- Plant response rating, Galium [11, 13]: 0
- Plant response rating, Galium [11, 14]: 0
- Galium plant response rating ([11]; scale 0 to 100): 0
- Plant response rating, Morningglory [12, 13]: 0
- Plant response rating, Morningglory [12, 15]: 0
- Plant response rating, Morningglory ([12]; 62 g ai/ha, scale 0 to 100): 0
- Morningglory plant response rating ([12]; 8 g ai/ha, scale 0 to 100): 0

Structure (SMILES): Cc1cc(-c2ccc(Cl)cc2)nn1-c1c(OS(=O)(=O)C(C)C)cnn(C)c1=O [Compound 50]
- Plant response rating, Blackgrass [1, 13]: 0
- Plant response rating, Blackgrass [1, 14]: 60
- Plant response rating, Blackgrass ([1]; 62 g ai/ha, scale 0 to 100): 95
- Blackgrass plant response rating ([1]; scale 0 to 100): 0
- Plant response rating, Corn (corn (Zea mays); [13]): 0
- Plant response rating, Corn (corn (Zea mays); 62 g ai/ha, scale 0 to 100): 90
- Corn plant response rating (corn (Zea mays); 8 g ai/ha, scale 0 to 100): 0
- Plant response rating, Bromegrass, Downy [2, 13]: 0
- Plant response rating, Bromegrass, Downy [2, 14]: 0
- Plant response rating, Bromegrass, Downy ([2]; 62 g ai/ha, scale 0 to 100): 0
- Bromegrass, Downy plant response rating ([2]; scale 0 to 100): 0
- Plant response rating, Foxtail, Giant [3, 13]: 98
- Plant response rating, Foxtail, Giant [3, 14]: 100
- Plant response rating, Foxtail, Giant ([3]; 62 g ai/ha, scale 0 to 100): 100
- Foxtail, Giant plant response rating ([3]; 8 g ai/ha, scale 0 to 100): 20
- Plant response rating, Pigweed [4, 13]: 0
- Plant response rating, Pigweed [4, 15]: 0
- Plant response rating, Pigweed ([4]; 62 g ai/ha, scale 0 to 100): 0
- Pigweed plant response rating ([4]; 8 g ai/ha, scale 0 to 100): 0
- Plant response rating, Johnsongrass [5, 13]: 95
- Plant response rating, Johnsongrass [5, 14]: 98
- Plant response rating, Johnsongrass ([5]; 62 g ai/ha, scale 0 to 100): 100
- Johnsongrass plant response rating ([5]; 8 g ai/ha, scale 0 to 100): 70
- Plant response rating, Surinam Grass [6, 13]: 40
- Plant response rating, Surinam Grass [6, 15]: 90
- Plant response rating, Surinam Grass [6, 16]: 98
- Surinam Grass plant response rating ([6]; 8 g ai/ha): 20
- Plant response rating, Sunflower [7, 13]: 0
- Plant response rating, Sunflower [7, 15]: 0
- Plant response rating, Sunflower ([7]; 62 g ai/ha, scale 0 to 100): 20
- Sunflower plant response rating ([7]; 8 g ai/ha, scale 0 to 100): 0
- Plant response rating, Nightshade, E. B. [8, 13]: 0
- Plant response rating, Nightshade, E. B. [8, 15]: 100
- Plant response rating, Nightshade, E. B. ([8]; 62 g ai/ha, scale 0 to 100): 100
- Nightshade, E. B. plant response rating ([8]; 8 g ai/ha, scale 0 to 100): 0
- Plant response rating, Cupgrass, Woolly [9, 13]: 75
- Plant response rating, Cupgrass, Woolly [9, 14]: 98
- Plant response rating, Cupgrass, Woolly ([9]; 62 g ai/ha, scale 0 to 100): 100
- Cupgrass, Woolly plant response rating ([9]; 8 g ai/ha, scale 0 to 100): 20
- Plant response rating, Foxtail, Green [10, 13]: 95
- Plant response rating, Foxtail, Green [10, 14]: 98
- Plant response rating, Foxtail, Green ([10]; 62 g ai/ha, scale 0 to 100): 100
- Foxtail, Green plant response rating ([10]; 8 g ai/ha, scale 0 to 100): 0
- Plant response rating, Galium [11, 13]: 0
- Galium plant response rating ([11]; scale 0 to 100): 0
- Plant response rating, Morningglory [12, 13]: 0
- Plant response rating, Morningglory [12, 15]: 0
- Plant response rating, Morningglory ([12]; 62 g ai/ha, scale 0 to 100): 30
- Morningglory plant response rating ([12]; 8 g ai/ha, scale 0 to 100): 0

Structure (SMILES): Cc1cc(-c2ccc(Cl)cc2)nn1-c1c(OS(=O)(=O)c2ccc(Cl)s2)cnn(C)c1=O [Compound 55]
- Plant response rating, Blackgrass [1, 13]: 80
- Plant response rating, Blackgrass [1, 14]: 100
- Plant response rating, Blackgrass ([1]; 62 g ai/ha, scale 0 to 100): 100
- Blackgrass plant response rating ([1]; scale 0 to 100): 0
- Plant response rating, Corn (corn (Zea mays); [14]): 80
- Plant response rating, Corn (corn (Zea mays); 62 g ai/ha, scale 0 to 100): 95
- Corn plant response rating (corn (Zea mays); 8 g ai/ha, scale 0 to 100): 0
- Corn plant response rating (corn (Zea mays); 16 g ai/ha, scale 0 to 100): 0
- Plant response rating, Bromegrass, Downy [2, 13]: 0
- Plant response rating, Bromegrass, Downy [2, 14]: 30
- Plant response rating, Bromegrass, Downy ([2]; 62 g ai/ha, scale 0 to 100): 60
- Bromegrass, Downy plant response rating ([2]; scale 0 to 100): 0
- Plant response rating, Foxtail, Giant [3, 14]: 100
- Plant response rating, Foxtail, Giant ([3]; 62 g ai/ha, scale 0 to 100): 100
- Foxtail, Giant plant response rating ([3]; 8 g ai/ha, scale 0 to 100): 90
- Foxtail, Giant plant response rating ([3]; 16 g ai/ha, scale 0 to 100): 98
- Plant response rating, Pigweed [4, 15]: 0
- Plant response rating, Pigweed ([4]; 62 g ai/ha, scale 0 to 100): 0
- Pigweed plant response rating ([4]; 8 g ai/ha, scale 0 to 100): 0
- Pigweed plant response rating ([4]; 16 g ai/ha, scale 0 to 100): 0
- Plant response rating, Johnsongrass [5, 14]: 70
- Plant response rating, Johnsongrass ([5]; 62 g ai/ha, scale 0 to 100): 95
- Johnsongrass plant response rating ([5]; 8 g ai/ha, scale 0 to 100): 0
- Johnsongrass plant response rating ([5]; 16 g ai/ha, scale 0 to 100): 15
- Plant response rating, Surinam Grass [6, 15]: 100
- Plant response rating, Surinam Grass [6, 16]: 100
- Surinam Grass plant response rating ([6]; 8 g ai/ha): 15
- Surinam Grass plant response rating ([6]; 16 g ai/ha): 50
- Plant response rating, Sunflower [7, 15]: 0
- Plant response rating, Sunflower ([7]; 62 g ai/ha, scale 0 to 100): 0
- Sunflower plant response rating ([7]; 8 g ai/ha, scale 0 to 100): 0
- Sunflower plant response rating ([7]; 16 g ai/ha, scale 0 to 100): 0
- Plant response rating, Nightshade, E. B. [8, 15]: 80
- Plant response rating, Nightshade, E. B. ([8]; 62 g ai/ha, scale 0 to 100): 100
- Nightshade, E. B. plant response rating ([8]; 8 g ai/ha, scale 0 to 100): 0
- Nightshade, E. B. plant response rating ([8]; 16 g ai/ha, scale 0 to 100): 0
- Plant response rating, Cupgrass, Woolly [9, 14]: 100
- Plant response rating, Cupgrass, Woolly ([9]; 62 g ai/ha, scale 0 to 100): 100
- Cupgrass, Woolly plant response rating ([9]; 8 g ai/ha, scale 0 to 100): 15
- Cupgrass, Woolly plant response rating ([9]; 16 g ai/ha, scale 0 to 100): 80
- Plant response rating, Foxtail, Green [10, 14]: 100
- Plant response rating, Foxtail, Green ([10]; 62 g ai/ha, scale 0 to 100): 100
- Foxtail, Green plant response rating ([10]; 8 g ai/ha, scale 0 to 100): 0
- Foxtail, Green plant response rating ([10]; 16 g ai/ha, scale 0 to 100): 90
- Plant response rating, Galium [11, 14]: 0
- Plant response rating, Galium ([11]; 62 g ai/ha, scale 0 to 100): 0
- Galium plant response rating ([11]; scale 0 to 100): 0
- Plant response rating, Morningglory [12, 15]: 0
- Plant response rating, Morningglory ([12]; 62 g ai/ha, scale 0 to 100): 0
- Morningglory plant response rating ([12]; 8 g ai/ha, scale 0 to 100): 0
- Morningglory plant response rating ([12]; 16 g ai/ha, scale 0 to 100): 0
